The results in this text go back to US20230071840A1, “HETEROCYCLIC GLP-1 AGONISTS” (Gasherbrum Bio, Inc., priority 2020, published 2023).

This assay has as its target GLP-1 Receptor (Homo sapiens, UniProt P43220). Description: GLP-1R agonist cAMP stimulation assay (HEK293/GLP1R/CRE-LUC cells, cAMP dynamic 2 kit). In kind it is cell-based. The method, then: Activation of GLP-1 receptor is known to stimulate cyclic AMP (cAMP) production in cells which indicates primary coupling to the Gas subunit of the G protein heterotrimeric complex.
To optimize functional activity directed toward Gas coupling, a HEK293/CRE-Luc cell line developed by HDB stably expressing the GLP-1 Receptor was used. […] Seal the plate and incubate at 37° C. with 5% CO2 for 30 min.
After incubation the cAMP assay signal was generated using cAMP dynamic 2 Kit (Cisbio). 5 μL cAMP-d2 working solution was added to each well, followed with 5 μL Anti-cAMP antibody-cryptate working solution added to each well using ThermoFisher Multidrop Combi. Incubate at room temperature for 1 hour protected from light.
% Activity=[…]×(mean RLU of test sample−mean RLU of vehicle control)/(mean RLU of MAX control−mean RLU of vehicle control))

Setting [1] is: HEK293/CRE-Luc cell line stably expressing the GLP-1 Receptor, 30 min incubation at 37° C., read-out: GLP1R cAMP Stimulation DR: EC50.

Each structure is given as a SMILES string. Where two headings read alike, the source gives them in different places.

Chain of GLP-1 Receptor (P43220 24-463, species assumed): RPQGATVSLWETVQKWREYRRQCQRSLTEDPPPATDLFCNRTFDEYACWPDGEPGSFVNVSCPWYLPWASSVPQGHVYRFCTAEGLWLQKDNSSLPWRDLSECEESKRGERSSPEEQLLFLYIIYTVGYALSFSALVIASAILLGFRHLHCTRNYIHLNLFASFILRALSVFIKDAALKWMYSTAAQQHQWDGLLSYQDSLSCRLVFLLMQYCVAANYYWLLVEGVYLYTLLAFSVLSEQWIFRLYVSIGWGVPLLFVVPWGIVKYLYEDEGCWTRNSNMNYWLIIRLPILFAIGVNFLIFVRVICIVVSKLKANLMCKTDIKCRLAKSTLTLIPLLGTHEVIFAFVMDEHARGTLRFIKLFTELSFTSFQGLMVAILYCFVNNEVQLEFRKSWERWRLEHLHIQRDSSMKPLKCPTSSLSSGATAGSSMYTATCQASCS

For the molecule `O=C(O)c1ccc2nc(CC3CCN(C(=O)c4cccc(Cc5ccc(Cl)cc5F)n4)CC3)n(C[C@@H]3CCO3)c2n1` [Compound 106a, (S)-2-((1-(6-(4-Chloro-2-fluorobenzyl)picolinoyl)piperidin-4-yl)methyl)-3-(oxetan-2-ylmethyl)-3H-imidazo[4,5-b]pyridine-5-carboxylic acid], the EC50 under setting [1] worked out at 463 nM. Still for that read-out and setting: the same measure for `O=C(O)c1ccc2nc(CN3CCC(Oc4nc(Cc5ccc(Cl)cc5F)ccc4F)CC3)n(C[C@@H]3CCO3)c2n1` [Compound 111a, 2-{[4-({6-[(4-chloro-2-fluorophenyl)methyl]-3-fluoropyridin-2-yl}oxy)piperidin-1-yl]methyl}-3-{[(2S)-oxetan-2-yl]methyl}-3H-imidazo[4,5-b]pyridine-5-carboxylic acid]: 0.29 nM; for `O=C(O)c1ccc2nc(CN3CCC(Oc4ccnc(Cc5ccc(Cl)cc5F)n4)CC3)n(C[C@@H]3CCO3)c2n1` [Compound 113a, 2-{[4-({2-[(4-chloro-2-fluorophenyl)methyl]pyrimidin-4-yl}oxy)piperidin-1-yl]methyl}-3-{[(2S)-oxetan-2-yl]methyl}-3H-imidazo[4,5-b]pyridine-5-carboxylic acid]: 0.038 nM; for `O=C(O)c1ccc2nc(CN3CCC(Oc4cc(Cc5ccc(Cl)cc5F)ccc4F)CC3)n(C[C@@H]3CCO3)c2n1` [Compound 114a, 2-[(4-{5-[(4-chloro-2-fluorophenyl)methyl]-2-fluorophenoxy}piperidin-1-yl)methyl]-3-{[(2S)-oxetan-2-yl]methyl}-3H-imidazo[4,5-b]pyridine-5-carboxylic acid]: 1.7 nM.

With `O=C(O)c1ccc2nc(CN3CCC(Oc4ccn(Cc5ccc(Cl)cc5F)n4)CC3)n(C[C@@H]3CCO3)c2c1` [Compound 116a, 2-{[4-({1-[(4-chloro-2-fluorophenyl)methyl]-1H-pyrazol-3-yl}oxy)piperidin-1-yl]methyl}-1-{[(2S)-oxetan-2-yl]methyl}-1H-1,3-benzodiazole-6-carboxylic acid], the half-maximal effective concentration (EC50) under setting [1] amounted to 2.8 nM.

Take `O=C(O)c1ccc2nc(CN3CCC(Cc4cccc(Oc5ccc(Cl)cc5F)n4)CC3)n(C[C@@H]3CCO3)c2n1` [Compound 121a, 2-[(4-{[6-(4-chloro-2-fluorophenoxy)pyridin-2-yl]methyl}piperidin-1-yl)methyl]-3-{[(2S)-oxetan-2-yl]methyl}-3H-imidazo[4,5-b]pyridine-5-carboxylic acid]: the EC50 under setting [1] is 6.5 nM. Same read-out and setting: the same measure for `O=C(O)c1ccc2nc(CN3CCC(Oc4cccc(Cc5ccc(Cl)cc5)n4)CC3)n(C[C@@H]3CCO3)c2n1` [Compound 124a, (S)-2-((4-((6-(4-chlorobenzyl)pyridin-2-yl)oxy)piperidin-1-yl)methyl)-3-(oxetan-2-ylmethyl)-3H-imidazo[4,5-b]pyridine-5-carboxylic acid]: 0.043 nM; for `O=C(O)c1ccc2nc(CN3CCC(Oc4cccc(Cc5cccc(Cl)c5)n4)CC3)n(C[C@@H]3CCO3)c2n1` [Compound 125a, (S)-2-((4-((6-(3-chlorobenzyl)pyridin-2-yl)oxy)piperidin-1-yl)methyl)-3-(oxetan-2-ylmethyl)-3H-imidazo[4,5-b]pyridine-5-carboxylic acid]: 1.4 nM; for `O=C(O)c1ccc2nc(CN3CCC(Oc4cccc(Cc5ccccc5Cl)n4)CC3)n(C[C@@H]3CCO3)c2n1` [Compound 126a, (S)-2-((4-((6-(2-chlorobenzyl)pyridin-2-yl)oxy)piperidin-1-yl)methyl)-3-(oxetan-2-ylmethyl)-3H-imidazo[4,5-b]pyridine-5-carboxylic acid]: 1 nM. In turn, `CC(c1cccc(OC2CCN(Cc3nc4ccc(C(=O)O)nc4n3C[C@@H]3CCO3)CC2)n1)c1ccc(Cl)cc1F` (stereo partly drawn) [Compound 128a, 2-{[4-({6-[1-(4-chloro-2-fluorophenyl)ethyl]pyridin-2-yl}oxy)piperidin-1-yl]methyl}-3-{[(2S)-oxetan-2-yl]methyl}-3H-imidazo[4,5-b]pyridine-5-carboxylic acid] yielded an EC50 (GLP1R cAMP Stimulation DR: EC50 (nM)) of 1.2 nM.
